Test results from patent US20060121126A1, “Environmentally friendly pesticide and method of use” (priority 2004, published 2006).

Test system: Culex pipiens and Aedes Egypti late 3rd instar larvae
Test: Mosquito larvae mortality in cups of tap water
Assay type: in vivo
Conditions: 20 larvae in 150 mL tap water
Experimental: A series of control experiments are conducted to study the effect of aqueous hydrogen peroxide and saponin extract on mosquito larvae, individually, and in combination. In a series of 30 experiments, 20 Culex pipiens and Aedes Egypti in the late 3rd instar larvae are placed in a cup containing 150 mL of tap water. In separate experiments, the larvae are exposed to varying concentrations of hydrogen peroxide saponin extract. The mortality is recorded over a 5-day period.

OO [hydrogen peroxide]
concentration needed to achieve 50% larvae mortality in 24 hrs: > 100 ppm
